Calls of active or inactive are those of the source. The calls are words filed in the database; no cut-off is given here. Where a SMILES comes first, the peptide text is derived from it.
Columns and labels:
HaCaT = assay: Cytotoxicity against human HaCaT cells up to 150 uM by MTT assay relative to control; assay type: cell-based
[1] = target: T1, Tyrosinase (Mus musculus) (UniProt P11344); assay: Inhibition of TYR activity in mouse B16 cells assessed as effect on pallet after exfoliation at 20 uM preincubated for 72 hrs followed L-dopa substrate addition and measured after 4 hrs by fluorescence microscopy; assay type: cell-based
T1 sequence (whole entry): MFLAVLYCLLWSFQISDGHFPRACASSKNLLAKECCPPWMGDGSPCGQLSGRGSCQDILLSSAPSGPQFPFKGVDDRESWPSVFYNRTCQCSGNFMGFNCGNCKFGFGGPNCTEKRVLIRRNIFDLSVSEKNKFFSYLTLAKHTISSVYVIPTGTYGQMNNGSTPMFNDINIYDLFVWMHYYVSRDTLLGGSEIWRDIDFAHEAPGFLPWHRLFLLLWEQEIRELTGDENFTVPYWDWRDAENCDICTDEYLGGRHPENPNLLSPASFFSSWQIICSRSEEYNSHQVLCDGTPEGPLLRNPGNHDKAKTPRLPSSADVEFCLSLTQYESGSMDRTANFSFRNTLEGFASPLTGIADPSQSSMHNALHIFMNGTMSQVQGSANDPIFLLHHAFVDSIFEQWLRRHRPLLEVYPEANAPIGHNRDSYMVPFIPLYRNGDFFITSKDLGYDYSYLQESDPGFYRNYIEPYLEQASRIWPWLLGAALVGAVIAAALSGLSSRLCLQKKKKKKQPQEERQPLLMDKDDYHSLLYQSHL

[2] = target: T2, Tyrosinase (Agaricus bisporus) (UniProt O42713); assay: Potency index, ratio of IC50 for arbutin to IC50 for test compound for inhibition of mushroom tyrosinase using L-dopa as substrate assessed as reduction in dopachrome production after 20 mins by spectrophotometry
T2 sequence (whole entry): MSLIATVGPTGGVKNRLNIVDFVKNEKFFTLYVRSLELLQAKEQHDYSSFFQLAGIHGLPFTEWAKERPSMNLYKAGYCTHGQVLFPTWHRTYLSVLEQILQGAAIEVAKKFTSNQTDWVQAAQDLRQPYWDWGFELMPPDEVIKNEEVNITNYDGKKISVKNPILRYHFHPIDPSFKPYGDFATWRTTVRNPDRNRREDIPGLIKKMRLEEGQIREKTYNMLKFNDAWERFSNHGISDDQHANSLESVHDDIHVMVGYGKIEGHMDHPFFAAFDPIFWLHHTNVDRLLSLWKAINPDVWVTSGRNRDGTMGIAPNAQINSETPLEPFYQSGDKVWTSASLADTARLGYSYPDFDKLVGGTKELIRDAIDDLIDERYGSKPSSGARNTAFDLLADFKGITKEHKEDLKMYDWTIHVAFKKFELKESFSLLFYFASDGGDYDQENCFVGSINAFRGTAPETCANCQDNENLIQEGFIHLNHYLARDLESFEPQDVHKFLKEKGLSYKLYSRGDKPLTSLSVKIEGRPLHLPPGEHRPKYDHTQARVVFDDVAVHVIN

LAD2 [3] = assay: (§1) Proinflammatory activity in human LAD2 cells assessed as increase in mast-cell degranulation by measuring beta-hexosaminidase release at 0.5 mM preincubated for 30 mins followed 4-nitrophenyl-N-acetyl-beta-D-glucosaminide substrate addition and measured after 90 mins by fluorescence-based microplate reader analysis relative to control; assay type: ADME; conditions: lad2, 1.5 h, 500 µM
LAD2 [4] = assay: as §1, with “0.25” for “0.5”; assay type: ADME; conditions: lad2, 1.5 h, 250 µM
Cavia porcellus [5] = assay: Anti-melanogenic activity in UVB-induced pigmentation Dunkin-Hartley guinea pig model assessed as inhibition of UV-induced melanin production in epidermis basal layer at 1 to 2 mM administered topically using CP hydrogel 6 hrs before UV radiation every day for 2 weeks by Fontana-Masson-staining based assay; assay type: functional, organism-based
[6] = Drug uptake in skin basal layer of brown guinea pig at 2 mM dosed topically after 1 hr using FITC-labelled compound by H and E staining-based fluorescence microscopy; assay type: ADME, organism-based, Cavia porcellus; conditions: in vivo, topical_or_ocular, 2000 µM
[7] = Antioxidant activity assessed as ABTS radical scavenging activity at 80 uM after 10 mins relative to control; assay type: functional
Cavia porcellus [8] = assay: Protection against UVB-induced pigmentation in Dunkin-Hartley guinea pig assessed as increase in whitening at 1 to 2 mM using PG solvent administered topically post UV radiation for 5 days/week for two consecutive weeks for a total 10 days by Fontana-Masson-staining based assay; assay type: functional, organism-based
Cavia porcellus [9] = assay: Protection against UVB-induced pigmentation in Dunkin-Hartley guinea pig assessed as increase in whitening at 1 to 2 mM using CP hydrogel administered topically post UV radiation for 5 days/week for two consecutive weeks for a total 10 days by Fontana-Masson-staining based assay; assay type: functional, organism-based
[10] = target: T1, Tyrosinase (Mus musculus); assay: Inhibition of TYR activity in mouse B16 cells 20 uM using L-dopa as substrate after 72 hrs relative to control; assay type: cell-based

## CC(C)[C@H](NC(=O)[C@H](CCCNC(=N)N)NC(=O)[C@H](Cc1ccccc1)NC(=O)[C@H](CS)NC(=O)[C@H](CCCNC(=N)N)NC(=O)[C@@H](N)[C@@H](C)O)C(=O)N[C@@H](CS)C(=O)N[C@@H](CO)C(=O)O (H-TRCFRVCS-OH)
HaCaT
  Activity: 9%
[1]
  Activity: Active
[2]
  Ratio IC50: 10
LAD2 [3]
  Activity: 7.15%
LAD2 [4]
  Activity: 7.19%
Cavia porcellus [5]
  Activity: Active
[6]
  Drug uptake: Active
[7]
  Activity: 63%
Cavia porcellus [8]
  Activity: Active
Cavia porcellus [9]
  Activity: Active
[10]
  inhibition: 25.7%
